Results from patent US20100152140A1, “Method of Cancer Treatment with Naphthol Analogs” (priority 2007, published 2010).

How the values were obtained:
[1] = test system: H1734 cells; test: MTT viability, protection from Ro-31-8220 induced cytotoxicity; assay type: cell-based, human; settings: H1734, inhibitor 2 h then 20 μM Ro-31-8220, 24 h
Method: (§1) The cytotoxic activity of Ro-31-8220 was also determined against the all four NSCLC cells and NHTBE cells. Briefly, the cells (2,000/well) were incubated in triplicate in 96-well plates in the presence or absence of indicated test samples in a final volume of 0.2 ml for different days at 37° C. Afterwards, we performed the MTT assay.

[2] = test system: CREB; test: Western blot of p-CREB (CREB activation) in H1734 cells; assay type: cell-based, human; settings: serum free media, time course and various concentrations for 4 h
Method: (§2) Western Blot Analysis. Protein extracts from each of NSCLC cells and the NHTBE cells, were prepared by lysing the cells in SDS lysis buffer (250 mM Tris-Cl, pH 6.5, 2% SDS, 4% β-mercaptoethanol, 0.02% bromophenol blue, 10% glycerol) containing protease and phosphatase inhibitors. Standard SDS-PAGE and Western blotting procedures were used to analyze the cell extracts. Nitrocellulose blots were probed with anti-CREB and anti-phospho-specific pSer-133 CREB (Upstate Biotechnology, Waltham, Mass.); anti-Bcl-2, anti-Bcl-XL, anti-phospho-Erk1/2, and anti-Erk1/2 (Santa Cruz Biotechnology, Santa Cruz, Calif.); and anti-phospho-Rsk and anti-Rsk (Cell Signaling Technology, Cambridge, Mass.). To detect the cleavage products of apoptosis, nitrocellulose blots were probed with anti-poly (ADP-ribose) polymerase (PARP), anti-caspase-9, and anti-caspase-3 antibodies (New England Biolabs, Beverly, Mass.). Anti-actin antibodies were purchased from Sigma-Aldrich (St. Louis, Mo.) and the caspase-3 inhibitor Ac-DEVD-CHO was obtained from Promega (Madison, Wis.).

[3] = test system: CRE consensus oligonucleotide binding; test: EMSA of CRE consensus oligonucleotide binding, H1734 nuclear extracts; assay type: cell-based, human; settings: serum free media
Method: Electrophoretic Mobility Shift Assay. Isolation of nuclear extracts, sequences, preparation of oligonucleotide probes, electrophoretic mobility shift assay (EMSA) was conducted as previously described (19).

[4] = test system: pCREB; test: Immunocytochemistry for pCREB localization in H1734 cells; assay type: cell-based, human; settings: 20 μM, 4 h, serum free media
Method: Immunocytochemistry for CREB Localization. H1734 cells (1×10^5 cells/ml) were plated on a glass chamber slide (Falcon; BD Biosciences, San Jose, Calif.) for adherence and treated the next day for 4 h with Ro-31-8220. The chambers were removed, and cells were fixed with cold acetone. After a brief washing in PBS, the slides were blocked with 5% normal goat serum in PBS for 1 h and then incubated for 4 h with rabbit polyclonal anti-pCREB antibody (dilution, 1:100). The slides were washed, incubated with goat anti-rabbit IgG-Alexa 594 (Molecular Probes, Eugene, Oreg.) (dilution 1:100) for 1 h, and counter-stained for nuclei with 4′,6-diamidino-2-phenylindole, dihydrochloride (DAPI; 50 ng/ml) (Molecular Probes, Eugene, Oreg.) for 15 min. The slides were mounted with a mounting medium (Sigma-Aldrich), and confocal images were captured with an Olympus FV500 confocal microscope (NY) by using a Plan Apo 60× oil objective.

[5] = test system: phospho-Rsk; test: Western blot of phospho-Rsk in H1734 cells; assay type: cell-based, human; settings: serum free media
Method: as §2

[6] = test system: phospho-Erk1/2; test: Western blot of phospho-Erk1/2 in H1734 cells; assay type: cell-based, human
Method: as §2

[7] = test system: NSCLC cells (H1734, H226, A549, H292); test: MTT assay, NSCLC cell lines; assay type: cell-based, human
Method: as §1

[8] = test system: NHTBE cells; test: MTT assay, NHTBE cells; assay type: cell-based, human; settings: NHTBE cells compared with NSCLC cells
Method: as §1

[9] = test system: H1734 cells; test: Flow cytometric cell cycle analysis; assay type: cell-based, human; settings: H1734, 10 μM
Method: Flow Cytometric Analysis. H1734 cells were first synchronized by serum starvation overnight and then exposed to Ro-31-8220 for different lengths of time in the presence of 5% serum. The cells were washed, trypsinized, and fixed in 70% ethanol for 1 h at −20° C. Finally, cells were washed with PBS, resuspended, and stained in PBS containing 25 μg of propidium iodide and 1 μg/ml RNAase a for 30 min at room temperature. The distribution of cells during the cell cycle was then analyzed with a Facscalibur flow cytometer (Becton Dickinson, Bedford, Mass.).

[10] = test system: H1734 cells; test: Western blot of apoptosis cleavage products (PARP, caspase-9, caspase-3); assay type: cell-based, human
Method: as §2

[11] = test system: H1734 cells; test: Soft agar colony assay, H1734; assay type: cell-based, human; settings: H1734, 2 μM, 28 days
Method: (§3) Soft Agar Colony Assay. Single-cell suspensions of the H1734 and H226 cells were treated with or without different concentrations of Ro-31-8220 and then mixed with agarose to a final concentration of 0.35%. Aliquots of 1.5 ml containing 10^4 cells and 10% fetal calf serum were plated in triplicate in six-well plates over a base layer of 0.7% agarose and allowed to gel. The number of colonies that were greater than 60 μm was counted after 28 days of incubation.

[12] = test system: H226 cells; test: Soft agar colony assay, H226; assay type: cell-based, human; settings: H226, 2 μM, 28 days
Method: as §3

[13] = test system: H1734 cells; test: TUNEL apoptosis assay; assay type: cell-based, human; settings: H1734, 5 μM, 48 h
Method: Apoptosis Assay. H1734 cells (200,000) were plated in chamber slides; the next day, transfected with CREBwt, KCREB, and CREB133 DNA (100 ng/chamber), and with 100 nM siCREB. The terminal transferase dUTP nick end labeling (TUNEL) assay was performed according to the manufacturer's instructions (Promega). Briefly, the cells were fixed after 48 h of transfection in 4% formaldehyde and permeabilized with 0.5% Triton-X-100. The cells were incubated on the slides with terminal deoxynucleotidyl transferase and fluorescein-dUTP. They were then co-stained with DAPI and visualized with an Axioskop 40 fluorescence microscope (Carl Zeiss, Thornwood, N.Y.). Three fields were randomly counted for each sample. The images were captured at a magnification of 400× and stored using Axiovision software (Carl Zeiss), as described in the instructions provided by the manufacturer.

[14] = test system: U937 human leukemia cells; settings: cited from earlier work
[15] = test system: interleukin-6; settings: human cord blood-derived mast cells, mouse bone marrow-derived mast cells; cited from earlier work
[16] = test system: nuclear transcription factor kappa B-dependent transcription; settings: pulmonary A549 cells; cited from earlier work

CC(=O)N[C@@H](CC(=O)O)C(=O)N[C@@H](CCC(=O)O)C(=O)N[C@H](C(=O)N[C@H](C=O)CC(=O)O)C(C)C [Ac-DEVD-CHO]
protection from Ro-31-8220 induced cytotoxicity [1]: protected the cells

Cn1cc(C2=C(c3cn(CCCSC(=N)N)c4ccccc34)C(=O)NC2=O)c2ccccc21 [Ro-31-8220, 2-{1-[3-(Amidinothio)propyl]-1H-indol-3-yl}-3-(1-methylindol-3-yl)maleimide]
CREB activation (p-CREB) [2]: substantially suppressed
CRE consensus oligonucleotide binding [3]: suppressed in a time dependent and dose dependent manner
nuclear pCREB localization [4]: induced the nuclear disappearance of pCREB
concentration at which decrease of phospho-Rsk began ([5]; 4 h): 5 µM
time to suppression of phospho-Rsk [5]: ≤ 2 h
time to start of decrease of phospho-Erk1/2 expression [6]: ≤ 30 min
concentration at which decrease of phospho-Erk1/2 began ([6]; 4 h): 5 µM
mitochondrial activity (MTT), cell growth ([7]; all four NSCLC cell lines, dose-dependent): suppressed mitochondrial activity
suppression of mitochondrial activity (MTT) [8]: significantly less than that in the NSCLC cells
percentage of cells in the G2 phase ([9]; 6 h, controls 18%): 24.5%
percentage of cells in G2 phase ([9]; 24 h, controls 15%): 53%
PARP cleavage ([10]; H1734, 20 μM Ro-31-8220): cleavage of a 118-kDa PARP protein into an 87-kDa fragment
caspase-9 activation ([10]; H1734, 20 μM Ro-31-8220, 47-kDa to 37-kDa band): time-dependent activation
caspase-3 activation ([10]; H1734, 20 μM Ro-31-8220, 24 h): activation of caspase-3
decrease in colony formation [11]: 85%
decrease in colony formation [12]: 85%
cells in which apoptosis was induced (TUNEL) [13]: 52%
apoptosis in U937 human leukemia cells [14]: induces apoptosis
proliferation of U937 human leukemia cells [14]: suppressed the proliferation
autocrine growth factor interleukin-6 [15]: suppress
NF-kappa B-dependent transcription [16]: suppress

O=S(=O)(NCCNC/C=C/c1ccc(Br)cc1)c1cccc2cnccc12 [H-89]
cell growth of NSCLC cell lines ([7]; compared with Ro-31-8220): not significantly inhibiting the cell growth
